The text below walks through data of ChEMBL document CHEMBL5550215, “Discovery of Novel Imidazo[1,2-a]pyridine-Based HDAC6 Inhibitors as an Anticarcinogen with a Cardioprotective Effect” (J Med Chem, 2024).

SMILES strings stand for the structures. Activity calls are given as the source filed them. No cut-off for these calls is given here. Bounds are passed on as bounds.

One series has as its system HCT-116. The experiment in a line: Antiproliferative activity against human HCT-116 cells assessed as inhibition of cell growth by MTT assay. (Formazan colour is commonly taken as a measure of viable cells.)
The next series relates to AGS. The experiment in a line: Antiproliferative activity against human AGS cells assessed as inhibition of cell growth by MTT assay.
Series [1] in a line: Half life in male Sprague-Dawley rat at 7 mg/kg,iv measured upto 8 hrs by UPLC-MS/MS analysis. The format is ADME, organism-based. Particulars: in vivo.
Series [2] in a line: AUClast in male Sprague-Dawley rat at 7 mg/kg,iv measured upto 8 hrs by UPLC-MS/MS analysis. Particulars: in vivo. Format: ADME, organism-based.
Series [3] can be described thus: AUC (0 to infinity) in male Sprague-Dawley rat at 7 mg/kg,iv measured upto 8 hrs by UPLC-MS/MS analysis. Particulars: in vivo. Format: ADME, organism-based.
A short description of series [4]: Half life in male Sprague-Dawley rat at 7 mg/kg,po measured upto 8 hrs by UPLC-MS/MS analysis. The format is ADME, organism-based. The note with it: in vivo.
A short description of series [5]: Cmax in male Sprague-Dawley rat at 7 mg/kg,po measured upto 8 hrs by UPLC-MS/MS analysis. Format: ADME, organism-based. Particulars: in vivo.
The nature of series [6]: AUClast in male Sprague-Dawley rat at 7 mg/kg,po measured upto 8 hrs by UPLC-MS/MS analysis. Format: ADME, organism-based. The note with it: in vivo.
Series [7] can be described thus: Observed clearance in male Sprague-Dawley rat at 7 mg/kg,po measured upto 8 hrs by UPLC-MS/MS analysis. Particulars: in vivo. Format: ADME, organism-based.
Series [8] concerns MGC-803. The experiment in a line: Antimetastatic activity in human MGC-803 cells. Format: functional, cell-based. The note with it: dose <= 2.0 µM.
The subject of series [9] is MGC-803. The experiment in a line: Induction of apoptosis in human MGC-803 cells assessed as early apoptotic cells at 2 uM measured after 48 hrs by Annexin V-EGFP and PI staining based flow cytometry analysis (reference value: 0.66%). The format is functional.
Series [10] has as its system MGC-803. The experiment in a line: Induction of apoptosis in human MGC-803 cells assessed as late apoptotic cells at 0.5 uM measured after 48 hrs by Annexin V-EGFP and PI staining based flow cytometry analysis (reference value: 3.16%). The format is functional. In general terms: Flow cytometry measures light scatter and fluorescence of single cells or particles in a stream.

Series [11] relates to MGC-803. Put plainly: Induction of apoptosis in human MGC-803 cells assessed as necrotic cells at 0.5 uM measured after 48 hrs by Annexin V-EGFP and PI staining based flow cytometry analysis (reference value: 3.90%). Format: functional.
Series [12] relates to MGC-803. Put plainly: Induction of apoptosis in human MGC-803 cells assessed as necrotic cells at 1 uM measured after 48 hrs by Annexin V-EGFP and PI staining based flow cytometry analysis (reference value: 3.90%). The format is functional.
The subject of series [13] is MGC-803. The experiment in a line: Induction of apoptosis in human MGC-803 cells assessed as necrotic cells at 2 uM measured after 48 hrs by Annexin V-EGFP and PI staining based flow cytometry analysis (reference value: 3.90%). Format: functional.
The test system of series [14] is MGC-803. Put plainly: Antitumor activity against human MGC-803 cells xenografted in […] mouse model assessed as suppression of tumor mass at 25 to 50 mg/kg, ip measured upto 21 days with continuous administration for 5 days followed by two days break. The format is functional, organism-based. The note with it: dose 25-50 mg/kg, time <= 21.0 day. Background: A xenograft is tissue or cells of one species grown in another, often human tumour cells in immunodeficient mice.

In series [15] the target is T1, Protein deacetylase HDAC6 (Mus musculus) (UniProt Q9Z2V5).
T1 sequence (whole entry): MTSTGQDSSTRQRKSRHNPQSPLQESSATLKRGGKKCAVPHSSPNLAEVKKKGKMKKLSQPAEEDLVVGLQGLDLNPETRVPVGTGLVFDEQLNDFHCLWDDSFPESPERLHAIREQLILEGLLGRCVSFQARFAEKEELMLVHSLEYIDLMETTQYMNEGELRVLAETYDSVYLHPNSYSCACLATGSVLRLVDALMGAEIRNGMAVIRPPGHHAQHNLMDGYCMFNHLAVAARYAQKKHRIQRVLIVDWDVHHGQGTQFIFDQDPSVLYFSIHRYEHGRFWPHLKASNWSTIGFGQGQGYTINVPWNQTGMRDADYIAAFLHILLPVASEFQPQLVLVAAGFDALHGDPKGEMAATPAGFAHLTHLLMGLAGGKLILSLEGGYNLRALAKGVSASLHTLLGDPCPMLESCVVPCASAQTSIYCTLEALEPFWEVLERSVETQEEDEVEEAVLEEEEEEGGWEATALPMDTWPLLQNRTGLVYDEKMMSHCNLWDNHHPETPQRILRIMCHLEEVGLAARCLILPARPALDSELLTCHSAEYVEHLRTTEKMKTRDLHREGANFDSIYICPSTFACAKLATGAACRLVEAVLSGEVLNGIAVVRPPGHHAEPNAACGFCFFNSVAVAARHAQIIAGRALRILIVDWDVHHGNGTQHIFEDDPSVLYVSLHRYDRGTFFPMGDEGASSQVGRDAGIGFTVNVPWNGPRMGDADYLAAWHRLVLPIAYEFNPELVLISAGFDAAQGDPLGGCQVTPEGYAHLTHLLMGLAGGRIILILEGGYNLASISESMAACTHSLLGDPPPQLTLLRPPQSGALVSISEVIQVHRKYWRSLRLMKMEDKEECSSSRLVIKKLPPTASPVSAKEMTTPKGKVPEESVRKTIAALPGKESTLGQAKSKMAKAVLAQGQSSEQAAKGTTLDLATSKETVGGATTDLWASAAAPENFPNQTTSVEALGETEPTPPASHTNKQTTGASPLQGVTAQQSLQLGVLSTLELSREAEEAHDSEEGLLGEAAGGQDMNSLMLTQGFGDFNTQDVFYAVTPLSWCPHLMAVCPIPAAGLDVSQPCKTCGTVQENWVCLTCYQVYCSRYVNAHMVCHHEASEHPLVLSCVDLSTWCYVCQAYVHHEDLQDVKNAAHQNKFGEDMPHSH
The experiment in a line: In vivo inhibition of HDAC6 in C57BL/6 mouse xenografted with MGC-803 cells assessed as effect on acetylated H3 level at 25 to 50 mg/kg, ip by Western blot analysis. The format is functional, organism-based. The note with it: dose 25-50 mg/kg.

Series [16] in a line: Toxicity in C57BL/6 mouse assessed as appearance of inflammatory cell infiltration at 25 to 50 mg/kg, ip by H and E staining based analysis. The note with it: in vivo, dose 25-50 mg/kg. The format is organism-based.
The subject of series [17] is H9c2. The experiment in a line: Cardioprotective activity in H2O2 induced myocardial injury in rat H9c2 cells assessed as appearance of defined nuclear boundaries at 2 to 8 uM. The format is functional, cell-based. Particulars: dose 2-8 µM.
The test system of series [18] is H9c2. Put plainly: Cardioprotective activity in H2O2 induced myocardial injury in rat H9c2 cells assessed as effect on SOD level at upto 8 uM by q-PCR analysis. Format: functional, cell-based.
The test system of series [19] is H9c2. Put plainly: Cardioprotective activity in H2O2 induced myocardial injury in rat H9c2 cells assessed as effect on LC3 level at upto 8 uM by q-PCR analysis. Format: functional, cell-based.
Series [20] has as its system Mus musculus. Put plainly: Cardioprotective activity against myocardial ischemia/reperfusion induced C57BL/6J mouse model assessed as reduction in myocardial infarction area at 2.5 mg/kg (reference value: 72.19%). Format: functional. Also on record: scale not given: the % may be the effect or the level left.
In series [21] the test system is Mus musculus. Put plainly: Cardioprotective activity against myocardial ischemia/reperfusion induced C57BL/6J mouse model assessed as alleviation of severe edema at 10 mg/kg by H and E staining based analysis. Format: functional, organism-based.

In general, IC50 refers to the point on the concentration scale where inhibition reaches its midpoint. One may read the half-life as the time in which the quantity being followed falls by half. One may read the AUC(0-t) as the area under the concentration-time curve up to a stated or last time point. In general, AUC(0-inf) refers to the area under the concentration-time curve extrapolated to infinity. In general, Cmax refers to the maximum level reached in the sampled fluid or tissue. The term CL/F denotes the apparent clearance, not corrected for the fraction that reaches the circulation.

`O=C(NO)c1ccc(CNC(=O)c2cc(-c3ccc(F)cc3)cn3ccnc23)cc1`: the concentration for half-maximal inhibition (IC50) with HCT-116 and with AGS was over 10 µM in each case. The results for the half-life in series [1] and in series [4] were 2.19 h and 3.58 h, respectively. Moreover, the AUC(0-t) at 8 h is 740 ng·h/mL in series [2] and 54.2 ng·h/mL in [6]. Further, the AUC(0-inf) in series [3] is 868 ng·h/mL. Moreover, in [5], the Cmax was 27.5 ng/mL. The CL/F in series [7] is 1590 mL/min/kg. Moreover, the Activity result was “Dose-Dependent Effect” in the series on MGC-803 [8]; 0.7% in the series on MGC-803 [9]; 15% with MGC-803 [10]; 5.97% in the series on MGC-803 [11]; 4.7% in the series with MGC-803 [12]; 4.83% in the series with MGC-803 [13]. Also, the Activity entry in series [16] is recorded as “Non-Toxic”; in the series on Mus musculus [20], 59.66%. Also, the result with MGC-803 [14], in the series with H9c2 [17] and in the series with Mus musculus [21] was Active. Also, the inhibition entry in [15] is “Active”. Besides, the outcome with H9c2 [18] and in the series on H9c2 [19] was inactive.
